# Experimental data published in PubChem BioAssay (NCI).
#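 Assay format: 96-well plates, 48-hour exposure. GI50 = concentration required for 50% inhibition of growth. TGI: concentration producing complete growth inhibition.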 Where a SMILES comes first, the peptide text is derived from it. Bridges are numbered along the chain shown (N, C = ends). [ ]: non-standard residue; d: D form. The star is where a group is joined. ξ: configuration not given here. ξDab(CH2SO3H) = NC(CCNCS(=O)(=O)O)C(=O)O; Heptanoyl(6-Me) = CC(C)CCCCC(=O)*; Dab = NCC[CH](N)C(=O)O
# Columns and labels:
# Test in all cases: inhibition of tumour cell growth, NCI panel, 48 h
# A549 NSCLC = system: A549 NSCLC
# HOP-92 NSCLC = system: HOP-92 NSCLC
# K-562 leukemia = system: K-562 leukemia
# KM12 colon = system: KM12 colon
# OVCAR-4 ovarian = system: OVCAR-4 ovarian
# SF-268 CNS = system: SF-268 CNS
# SK-MEL-2 melanoma = system: SK-MEL-2 melanoma
# SW-620 colon = system: SW-620 colon
# U251 CNS = system: U251 CNS
# MDA-MB-231 breast = system: MDA-MB-231 breast
Compound,TGI (A549 NSCLC) [µM],TGI (HOP-92 NSCLC) [µM],TGI (K-562 leukemia) [µM],TGI (KM12 colon) [µM],TGI (OVCAR-4 ovarian) [µM],TGI (SF-268 CNS) [µM],TGI (SK-MEL-2 melanoma) [µM],TGI (SW-620 colon) [µM],TGI (U251 CNS) [µM],TGI (MDA-MB-231 breast) [µM],GI50 (A549 NSCLC) [µM],GI50 (KM12 colon) [µM],GI50 (MDA-MB-231 breast) [µM],GI50 (OVCAR-4 ovarian) [µM],GI50 (SF-268 CNS) [µM],GI50 (SK-MEL-2 melanoma) [µM],GI50 (SW-620 colon) [µM],GI50 (U251 CNS) [µM],GI50 (HOP-92 NSCLC) [µM],GI50 (K-562 leukemia) [µM]
O=C(O)COc1ccc(C(=O)/C(SS/C(C(=O)c2ccc(OCC(=O)O)c(Cl)c2Cl)=C2\C=C(c3ccc(Cl)cc3)SS2)=C2/C=C(c3ccc(Cl)cc3)SS2)c(Cl)c1Cl,41.7,17.9,10.7,54.6,16.7,27.6,33.7,11.5,15.4,,,,,,,,,,,
C(=N\Nc1ccccc1)/c1nc2ccccc2nc1/C=N/Nc1ccccc1,28.8,33.2,20.5,41,48.4,29.3,39.3,30.7,,,,,,,,,,,,
NC(N)=NC(N)=Nc1cnccn1,> 100,> 100,> 100,> 100,> 100,,> 100,> 100,> 100,> 100,,,,,,,,,,
O=C(NC(=O)c1ccccc1[N+](=O)[O-])Nc1ccc(Oc2ncc(Cl)cn2)c([N+](=O)[O-])c1,> 100,,> 100,> 66.3,> 100,> 100,> 100,> 100,> 88.6,63.1,,,,,,,,,,
CCC(C)C1NC(=O)C(CCNCS(=O)(=O)O)NC(=O)C(NC(=O)C(CCNCS(=O)(=O)O)NC(=O)C(NC(=O)C(CCNCS(=O)(=O)O)NC(=O)CCCCC(C)C)C(C)O)CCNC(=O)C(C(C)O)NC(=O)C(CCNCS(=O)(=O)O)NC(=O)C(CCNCS(=O)(=O)O)NC(=O)C(C(C)CC)NC1=O (stereo not drawn) ({Heptanoyl(6-Me)}-[ξDab(CH2SO3H)]T[ξDab(CH2SO3H)][Dab][ξDab(CH2SO3H)]II[ξDab(CH2SO3H)][ξDab(CH2SO3H)]T; lactam 4-C; configuration not given here),> 25,,,9.55,> 25,> 25,> 25,> 25,> 25,> 25,> 25,2.99,5.82,11.3,6.88,4.9,4,8.05,,
COc1cc(O)c2c(c1)O[C@@H]1OCC[C@H]21,> 100,> 100,> 100,> 100,> 100,,> 100,> 100,> 100,,,,,,,,,,,
COc1cc(-c2oc3c(OC)cc(OC)c(O)c3c(=O)c2OC)cc(OC)c1OC,> 100,> 100,> 100,> 100,> 100,> 100,,> 100,> 100,> 100,,,,,,,,,,
COc1ccc(Cc2c(=O)[nH]nc3ccccc23)cc1,> 100,> 100,> 100,> 100,> 100,> 100,> 100,> 100,,,,,,,,,,,,
CC[C@@]1(O)C(=O)OCc2c1cc1n(c2=O)Cc2cc3cccc([N+](=O)[O-])c3nc2-1,41.5,50.8,> 100,35.6,24.3,> 100,24.8,,3.07,,0.6,4.82,,4.04,0.794,6.11,,0.312,8.45,3.55
O=c1c2ccccc2nc(/C=C(\O)c2ccncc2)n1-c1ccc(Cl)cc1,> 100,> 100,> 100,> 100,> 100,> 100,> 100,> 100,> 100,,,,,,,,,,,
N#Cc1c(N)n2c(nc1=Nc1ccc(Cl)cc1)sc1cc(Cl)ccc12,,,> 100,,> 100,> 100,,> 100,> 100,71,,3.22,7.28,9.82,4.08,2.01,3.42,6.56,,> 100
O=C(NCc1cccnc1)C1COc2cc(-c3cc(=O)c4ccccc4o3)ccc2O1 (stereo not drawn),> 100,> 100,> 100,> 100,> 100,> 55.2,> 68.7,> 100,> 100,,,,,,,,,,,
Nc1nc(Cl)cc(NCC(O)CO)n1 (stereo not drawn),> 100,> 100,> 100,> 100,> 100,> 100,> 100,> 100,> 100,,,,,,,,,,,
Cc1nn2c(nc1=O)sc1ccc3ccccc3c12,> 100,> 100,> 100,> 100,> 100,> 100,> 100,> 100,> 100,,,,,,,,,,,
O=[N+]([O-])c1cc([N+](=O)[O-])c(/C=C/c2ccc(Cl)c(Cl)c2)cc1/C=C/c1ccc(Cl)c(Cl)c1,> 100,,78.8,51.1,> 100,75.8,56.4,88.6,> 100,,,,,,,,,,,
CCCCC(C(=O)CCC(=O)Nc1ccc(Cl)c(Cl)c1)C(=O)C(C)C (stereo not drawn),> 100,> 100,> 100,> 100,> 100,> 100,> 100,> 100,> 100,,,,,,,,,,,
CC1(Br)CC2OC3(Br)C=CC(C)(O)C2(CC1=O)C3(C)C (stereo not drawn),> 100,> 100,> 29.8,> 100,> 100,> 100,> 100,> 100,> 100,,,,,,,,,,,
Nc1nc(N)c(-c2ccccc2)c(C(=O)Nc2ccccc2)n1,> 100,> 100,> 100,> 100,> 100,> 100,> 100,> 100,> 100,,,,,,,,,,,
CONC(C)=O,> 100,,> 100,> 100,,> 100,> 100,> 100,> 100,> 100,,,,,,,,,,

Compound,TGI (A549 NSCLC) [µM],TGI (HOP-92 NSCLC) [µM],TGI (K-562 leukemia) [µM],TGI (KM12 colon) [µM],TGI (OVCAR-4 ovarian) [µM],TGI (SF-268 CNS) [µM],TGI (SK-MEL-2 melanoma) [µM],TGI (SW-620 colon) [µM],TGI (U251 CNS) [µM],TGI (MDA-MB-231 breast) [µM],GI50 (A549 NSCLC) [µM],GI50 (KM12 colon) [µM],GI50 (MDA-MB-231 breast) [µM],GI50 (OVCAR-4 ovarian) [µM],GI50 (SF-268 CNS) [µM],GI50 (SK-MEL-2 melanoma) [µM],GI50 (SW-620 colon) [µM],GI50 (U251 CNS) [µM],GI50 (HOP-92 NSCLC) [µM],GI50 (K-562 leukemia) [µM]
N#CCCCCCOCCOCCOCCOCCOCCCCCC#N,> 100,,> 100,> 100,> 100,> 100,> 100,> 100,> 100,,,,,,,,,,,
CCC(O)C1Cc2c(C)cc3c(c2O1)C(=O)c1ccccc1C3=O (stereo not drawn),> 100,97.1,> 100,> 100,> 100,> 100,> 100,> 100,> 100,,,,,,,,,,,
COc1ccc2c(O)c(/C=C3\N=Nc4ccccc43)oc2c1C[C@@H]1CCNC[C@H]1F,28,29.5,,12,26.6,14.1,32.5,11.7,10.6,7.33,13.5,0.695,2.42,11.4,3.13,17,2.51,3.17,13.3,
NC1CCCCC1N.O=[Se]([O-])[O-].[Pt+4] (stereo not drawn),> 61.8,82.1,> 49.8,> 100,> 100,> 76.8,31.1,> 39.9,15.7,,0.48,2.51,,2.63,0.549,6,0.0901,0.666,25.3,0.413
CCOC(=O)C(N=C(c1ccccc1)c1ccccc1)N(C(=O)OC(C)(C)C)C(=O)OC(C)(C)C (stereo not drawn),> 100,66.6,> 100,> 100,> 100,> 100,> 100,> 100,> 100,,,,,,,,,,,
Clc1ccc(Nc2ccnc(N3CCN(c4ccnc5cc(Cl)ccc45)CC3)n2)cc1,> 100,4.18,7.94,11.5,> 100,16.2,,11.6,11.1,7.22,3.32,3.04,2.22,2.56,3.33,,2.88,2.84,0.935,2.56
CC(=O)Nc1c(I)c(NC(C)=O)c(I)c(C(=O)O)c1I,> 100,> 100,> 100,> 100,> 100,,> 100,> 100,,> 100,> 100,> 100,> 100,> 100,,> 100,> 100,,> 100,> 100
CCOC(=O)Cc1csc(Nc2ccc(OCC)cc2)n1,> 100,> 100,> 100,> 100,> 100,> 100,> 100,> 100,> 100,,,,,,,,,,,
O=C(OC1CCC2OOC1O2)c1ccc([N+](=O)[O-])cc1 (stereo not drawn),> 100,,> 100,> 100,> 100,> 100,> 100,> 100,> 100,,,,,,,,,,,
COc1ccc(Sc2nc3cc(N)cc(N)c3nc2-c2ccccc2)cc1,> 100,,> 100,> 100,,> 100,,> 100,> 100,> 100,42.4,28.4,> 100,,> 100,,26.5,> 100,,9.83
CCOC(=O)NC/C=C/COC1CCCCO1 (stereo not drawn),> 100,,> 100,> 100,> 100,> 100,> 100,> 100,> 100,,,,,,,,,,,
Cc1cc(C)n(-c2ccnc3cc(Cl)ccc23)n1,> 100,> 100,> 100,> 100,> 100,> 100,> 100,> 100,> 100,,,,,,,,,,,
COc1cc2c(cc1OC)CC(=O)Nc1cc(OC)c(OC)cc1CC2,> 100,> 100,> 100,> 100,> 100,> 100,> 100,> 100,> 100,,,,,,,,,,,
CCCCNC(=O)C1C(=O)N(CCCC)C(=O)/C1=N\N (stereo not drawn),,> 100,> 100,> 100,> 100,> 100,> 100,> 100,> 100,,,,,,,,,,,
CN1CCC2(CC1)NC(=O)c1c(c3ccc(Cl)c(Cl)c3n1C)C2C#N (stereo not drawn),24.6,19.6,> 100,8.55,> 56,15.2,,33.3,26.2,15.2,7.33,3.84,5.19,11.7,4.54,,8.48,11.1,2.52,5.76
COc1ccc2c(c1)CC[C@@H]1[C@@H]2CC[C@]2(C)c3c(cc(C(=O)O)c4sccc34)C[C@@H]12,35.9,,20.9,23.5,79.8,48.3,> 100,36.7,47.5,59.7,11.2,10.6,25.6,26.3,17.6,37.5,16.1,16.4,,5.79
O=c1[nH]c(=O)c2cc3cc(C4CC(O)C(CO)O4)ccc3cc2[nH]1 (stereo not drawn),> 100,> 100,> 100,,> 100,> 100,> 100,> 100,> 100,> 100,> 100,,65.7,58.7,> 100,11.3,> 100,> 100,> 100,> 100
[Cl][Hg][c]1ccc(Cl)s1,60.9,3.11,7.29,28,4.78,13.3,17.6,2.59,2.71,,18.7,14.3,,1.76,3.48,4.65,1.04,0.91,1.67,0.729
